How the values were obtained:
[1] = tested on: Hedgehog signaling pathway genes; experiment: Affymetrix mRNA profiling of tumors, Hedgehog pathway genes; format: in vivo, mouse
Procedure: (§1) In order to characterize changes in gene expression in sensitive tumors compared to resistant tumors (both of which terms are defined herein), RNA was isolated from sensitive tumors treated with vehicle or Compound 1 for 4 (single dose), 16 (single dose) and 48 hours (three doses) as well as from resistant tumors (that initially had regressed in the presence of Compound 1 (day 13) but then regrew in the presence of drug as described above). Three tumors were analyzed per treatment group: The sensitive tumor group comprises tumors treated with 20 mg/kg of Compound 1 for 4 hours; 16 hours; and 48 hours. The resistant tumor group comprises tumors treated with 10 mg/kg bid and 80 mg/kg bid of Compound 1 for 26 days. mRNA expression in tumor samples was analyzed by Affymetrix profiling. The expression data were analyzed using the GeneGo pathway program, which groups data according to signal transduction pathways.

[2] = tested on: resistant medulloblastoma tumor cells; experiment: ex-vivo medulloblastoma proliferation assay (3H thymidine, 48 h), resistant tumor cells; format: cell-based, mouse; conditions: Mus musculus
Procedure: (§2) The effect of statins (e.g., simvastatin, flustatin) on the proliferation of medulloblastoma cells derived from sensitive and resistant Ptch+/− cells was evaluated by using an “ex-vivo medulloblastoma proliferation assay.” Using Ptch+/−p53−/−, Ptch+/−Hic+/− or Ptch+/− medulloblastoma tumors freshly harvested from allografted nude mice, we have developed a short-term 48 h proliferation assay that enables us to assess the in vitro potency of Smo inhibitors. The read-out for proliferation uses incorporation of 3H thymidine. The assay reflects the in vivo sensitivity of tumor cells to Compound 1.
(§3) The effect of PI3K inhibitors (e.g., compounds such as Compound A) on the proliferation of medulloblastoma cells derived from sensitive and resistant medulloblastoma cells was evaluated by using an “ex-vivo medulloblastoma proliferation assay,” as described above.

[3] = tested on: Ptch+/−Hic+/− medulloblastoma allograft; experiment: Ptch+/−Hic+/− medulloblastoma allograft model, continuous dosing; format: in vivo, mouse; conditions: day 47
Source text: (§4) Mouse medulloblastoma cells (1.0−5.0×10^6), dissociated directly from tumor fragments originally derived from spontaneously arising medulloblastomas in Ptch+/−p53−/−, Ptch+/−Hic+/− or Ptch+/− mice, were inoculated subcutaneously into the right flank of Harlan nu/nu mice. Treatment was initiated approximately 7-10 days post implantation. Animals were randomized into treatment groups with similar mean tumor volumes that ranged from approximately 250-300 mm3. Tumor volumes (mm3) and body weights (g) were recorded two or three times per week from all groups for analysis. Dose was body weight adjusted at time of dosing. Comparisons between treatment groups was performed using a non-parametric Kruskal-Wallis/Wilcoxon Rank Sum Test.
(§5) Tumors were calipered in two dimensions, and the volumes were calculated using the formula: (length×width2)/2, where length is the longer of the two measurements and width is the shorter one. Percent treatment/control (% T/C) values were calculated using the following formula: % T/C=100×ΔTf−i/ΔCf−i if ΔTf−i>0, % T/T0=100×ΔTf−i/T0 if ΔTf−i<0 (regression). A partial responder (PR) was defined as an animal whose tumor was less than 50% of the initial tumor volume by the end of the study. An animal with no palpable tumor by the end of study is defined as a complete responder (CR).
Treatments started on day 7 post implantation (5 million cells/animal). Compound 1 was administered po at 5 mg/kg bid, 10 mg/kg bid, 20 mg/kg qd, 20 mg/kg bid, 40 mg/kg bid and 80 mg/kg bid for the length of study. Compound 2 was administered at 100 mg/kg bid for the length of study. Vehicle control of Compound 1 was 0.5% methylcellulose 0.5% Tween 80 in water. The initial group size consisted of 8 animals. The vehicle group was taken down 10 days after treatment (tumors greater than 10% of mouse body weight).
Sustained regressions listed in the Table 1 represent number of complete responses still present at the end of study on day 47.
Two additional Smo inhibitors, Compound 3 and Compound 4 were evaluated in follow-up studies in the Ptch+/−Hic+/− model upon continous dosing.

[4] = tested on: Cholesterol biosynthesis pathway genes; experiment: Affymetrix mRNA profiling of tumors, cholesterol biosynthesis genes; format: in vivo, mouse; conditions: sensitive and resistant tumors
Procedure: as §1

[5] = tested on: Ptch+/− medulloblastoma allograft; experiment: Ptch+/− medulloblastoma allograft model, continuous dosing; format: in vivo, mouse; conditions: day 48
Source text: as §4, §5
Treatments started on day 7 post implantation (5 million cells/animal). Compound 1 was administered po at 10 mg/kg qd, 20 mg/kg qd, 40 mg/kg qd, 80 mg/kg qd and 160 mg/kg qd for the length of study. Compound 2 was administered at 100 mg/kg bid for the length of study. Vehicle control of Compound 1 was 0.5% methylcellulose 0.5% Tween 80 in water. The initial group size consisted of 8 animals. The vehicle group was taken down 7 days after treatment (tumors greater than 10% of mouse body weight). Similar resistance was seen to that observed with the Ptc+/−Hic+/− model, with a subset of the complete responders growing back and others showing complete regression (Table 2). Sustained regression listed in Table 2 represent number of complete regressions still present at the end of study on day 48.

[6] = tested on: sensitive medulloblastoma tumor cells; experiment: ex-vivo medulloblastoma proliferation assay (3H thymidine, 48 h), sensitive tumor cells; format: cell-based; conditions: Mus musculus
Procedure: as §2, §3

[7] = tested on: PI3K pathway genes; experiment: Affymetrix mRNA profiling of tumors, PI3K pathway genes; format: in vivo, mouse
Procedure: as §1

[8] = tested on: Ptch+/−Hic+/− medulloblastoma allograft; experiment: combination of Smo inhibitor and PI3K inhibitor in Ptch+/−Hic+/− medulloblastoma allograft model; format: in vivo, mouse
Source text: Mouse medulloblastoma cells (1.0-5.0×10^6), dissociated directly from tumor fragments originally derived from spontaneously arising medulloblastomas in Ptch+/-p53-/-, Ptch+/-Hic+/- or Ptch+/- mice, were inoculated subcutaneously into the right flank of Harlan nu/nu mice. Treatment was initiated approximately 7-10 days post implantation. Animals were randomized into treatment groups with similar mean tumor volumes that ranged from approximately 250-300 mm3. Tumor volumes (mm3) and body weights (g) were recorded two or three times per week from all groups for analysis. Dose was body weight adjusted at time of dosing. Comparisons between treatment groups was performed using a non-parametric Kruskal-Wallis/Wilcoxon Rank Sum Test. Tumors were calipered in two dimensions, and the volumes were calculated using the formula: (length×width2)/2, where length is the longer of the two measurements and width is the shorter one. […] A partial responder (PR) was defined as an animal whose tumor was less than 50% of the initial tumor volume by the end of the study. An animal with no palpable tumor by the end of study is defined as a complete responder (CR). Next, a combination of Compound 1 and Compound A was explored in the Ptch+/-Hic+/- medulloblastoma allograft model. […] Animals treated with vehicle control and with compound A had to be sacrificed around day 20 and 25, respectively, because their tumor volume reached 1500 mm3. […] Similar results were obtained for animals treated with Compound 1 alone for the first 10 days, followed by single agent treatment with Compound A (data not shown). […] Next, a combination of Compound 1 and Compound B was explored in the Ptch+/-Hic+/- medulloblastoma allograft model. […] Animals treated with vehicle control and with compound B reached the endpoint around day 12 to 15, respectively, because their tumor volume reached 700 mm3.

## Cc1c(C(=O)Nc2ccc(N3C[C@@H](C)O[C@@H](C)C3)nc2)cccc1-c1ccc(OC(F)(F)F)cc1 [Compound 1, 2-Methyl-4′-trifluoromethoxy-biphenyl-3-carboxylic acid [6-(cis-2,6-dimethyl-morpholin-4-yl)-pyridin-3-yl]-amide]
[1]; resistant tumors, 10 and 80 mg/kg bid, 26 days
  expression of Hedgehog pathway genes: no longer sufficiently inhibited the expression of Hedgehog pathway genes
[1]; sensitive tumors, 20 mg/kg, 4 h, 16 h, 48 h
  expression of genes indicative of Hedgehog signaling pathway activity: suppressed in sensitive tumors in a time-dependent manner
[2]; Resistant tumor, Table 3
  IC50: > 20000 nM
[2]; ptch+/− Hic+/−, Resistant, Table 4
  IC50: > 20000 nM
[2]; resistant tumors, summary of Table 4
  IC50: > 20000 nM
[2]; resistant tumors, text b482
  IC50: > 20000 nM
[3]; 5 mg/kg bid po
  sustained regressions (complete responses still present at end of study): 0/8
[3]; 10 mg/kg bid po
  sustained regressions (complete responses still present at end of study): 1/8
[3]; 20 mg/kg bid po
  sustained regressions (complete responses still present at end of study): 7/8
[3]; 20 mg/kg qd po
  sustained regressions (complete responses still present at end of study): 0/8
[3]; 40 mg/kg bid po
  sustained regressions (complete responses still present at end of study): 3/8
[3]; 80 mg/kg bid po
  sustained regressions (complete responses still present at end of study): 6/8
[4]
  expression of genes of the Cholesterol biosynthesis pathway: A similar expression pattern was observed
[5]; 10 mg/kg qd po
  sustained regressions (complete regressions still present at end of study): 0/8
[5]; 20 mg/kg qd po
  sustained regressions (complete regressions still present at end of study): 1/8
[5]; 40 mg/kg qd po
  sustained regressions (complete regressions still present at end of study): 1/8
[5]; 80 mg/kg qd po
  sustained regressions (complete regressions still present at end of study): 4/8
[5]; 160 mg/kg qd po
  sustained regressions (complete regressions still present at end of study): 5/8
[6]; Sensitive tumor, Table 3
  IC50: 3 nM
[6]; ptch+/− Hic+/−, sensitive, Table 4
  IC50: 2 nM
[6]; sensitive cells, summary of Table 4
  IC50: 2 to 4 nM
[6]; sensitive tumor cells, text b482
  IC50: 4 nM
[7]; resistant tumors compared to sensitive tumors
  PI3K pathway activity (gene expression): upregulation of PI3K pathway activity was observed in resistant tumors
[7]; sensitive tumors, 4, 16 and 48 h
  expression of genes indicative of PI3K pathway activity: No changes in gene expression were detected
[8]; 40 mg/kg qd, FIG. 6A
  effect on tumor growth: initially induced regression but tumors started to regrow
[8]; 40 mg/kg qd, FIG. 6B
  time to endpoint (tumor volume >1500 mm3): significantly prolonged
[8]; 80 mg/kg qd, FIG. 7A
  effect on tumor growth: initially induced regression but tumors started to regrow
[8]; 80 mg/kg qd, FIG. 7B
  time to endpoint (tumor volume >700 mm3): significantly prolonged

Reference: patent US8778927B2, “Smoothened antagonism for the treatment of hedgehog pathway-related disorders” (Novartis AG, priority 2008, dated 2014)
